Source: US20130022620A1, “ASSAYS AND METHODS PERTAINING TO PRE-AMYLOID INTERMEDIATES” (priority 2011, published 2013)

How the values were obtained:
[1] = system: rat INS-1 β-cells; test: AlamarBlue cell viability assay of β-cells; type: cell-based
Protocol: Transformed rat insulinoma-1 (INS-1) β-cells (which express RAGE) are a pancreatic beta cell line commonly used for studies of h-IAPP induced toxicity. INS-1 cells were grown in RPMI 1640 supplemented with 10% fetal bovine serum (FBS), 11 mM glucose, 10 mM Hepes, 2 mM L-glutamine, 1 mM sodium pyruvate, 50 μM β-mercaptoethanol, 100 U/ml penicillin, and […] streptomycin. Cells were maintained at 37° C./5% CO2.
(§1) Cyto-toxicity was measured by AlamarBlue assay. INS-1 β-cells were seeded at a density of 30,000 cells per well in 96-well plates and cultured for 24 hours prior to stimulation with IAPP. Human and rat IAPP were dissolved and incubated in 16 mM tris HCl (pH 7.4, 25° C.) prior to cell stimulation. AlamarBlue was diluted ten-fold in culture media and cells were incubated for 5 hours at 37° C. Fluorescence (excitation 530; emission 590 nm) was measured on a Beckman Coulter DTX880 fluorescent plate reader. Values calculated were relative to those of control cells treated with buffer only. All values represent means±SEM (n=3).
Changes in cell morphology were examined by light microscopy to provide a second method of evaluating cell viability. Transformed rat INS-1 beta cells were photographed immediately prior to assessment of toxicity by Alamar blue cell viability assays. Images were taken using an Olympus BX-61 light microscope.

[2] = biological target: T1, sRAGE (Homo sapiens, UniProt Q15109); test: Surface plasmon resonance binding to immobilized sRAGE; conditions: 20 μM h-IAPP
T1 construct: the soluble extracellular domain of RAGE (sRAGE); made in house; host or cells: Sf9 insect cells (baculovirus)
Protocol: A 20 μM h-IAPP solution was prepared in 16 mM tris HCl buffer (pH 7.4) and aliquots of the reaction were analyzed for binding at various incubation times after peptide dissolution. All SPR binding experiments were carried out on a GE Healthcare SPR instrument in the laboratory of Dr. Donald Landry at Columbia University Medical Center.

[3] = biological target: T1, sRAGE; test: Tryptophan fluorescence quenching assay of sRAGE binding; conditions: sRAGE added at different time points of the reaction, 1:1 molar ratio
From the text: The quenching of tryptophan fluorescence indicates binding. Fluorescence measurements were made at right angle in a […] dual path length quartz cuvette, using a Photon Technology International fluorescent spectrometer (280 nm excitation and 350 nm emission). Background fluorescence from buffer and IAPP peptides were negligible. The fluorescence quantum yield reported for each time point is an average of 20 reads over 20 seconds (2.5 nm bandwidth and 1 second integration time). Final solution conditions contained 16 mM tris HCl (pH 7.4).

[4] = system: mouse aortic smooth muscle cells; test: AlamarBlue cell viability assay of aortic smooth muscle cells; type: cell-based
Protocol: as §1, with “Mouse vascular SMCs were cultured from the aortas of 10-week-old male mice using a modification of the procedure of Tarvo and Barret. See Tarvo et al. Blood Vessels. 1980; 17:110-116. SMCs were cultured following an explant protocol in accordance with institutional guidelines. […] Cyto-toxicity” for “Cyto-toxicity”

[5] = type: physicochemical
Protocol: We recorded 2D-IR spectra of the intermediate species. The results are consistent with a lack of beta sheet structure and support the CD data (FIG. 4B). […] Samples of h-IAPP intermediates and h-IAPP amyloid fibrils were pelleted at 20,000 G for 20 minutes and the amount of soluble peptide remaining in the supernatant was measured. […] Characterization of the species in the supernatant and resuspended pellet by thioflavin-T and TEM, before addition of the solutions to cultured cells, confirm the absence of amyloid in the soluble phase and the presence of amyloid in the resuspended pellet. […] ANS is a small hydrophobic dye which has been widely used in protein folding studies. It typically binds to partially structured states which are rich in secondary structure, compact, but which have not yet established the final tertiary structure. […] The dye did bind to the final amyloid fibrils; an effect that is mediated in part by electrostatic interactions. A set of p-cyano-phenylalanine (p-cyanoPhe) analogs of h-IAPP were examined to probe further the nature of the toxic intermediate species. h-IAPP contains two phenylalanines at positions 15 and 23 and a single tyrosine located at the C-terminus. A set of three analogs were prepared in which one aromatic residue was replaced by p-cyanoPhe. […] It can also be quenched via FRET to tyrosine. p-CyanoPhe fluorescence is high for unaggregated IAPP and is quenched in the amyloid fibers. The intermediate species have high p-cyanoPhe fluorescence intensity and the value is the same as that of freshly dissolved material.

[6] = ANS binding assay; type: physicochemical; conditions: 10 μM ANS, pH 7.4
Protocol: 8-Anilinonaphthalenesulfonic Acid (ANS) is a small hydrophobic dye which is been widely used in protein folding studies. It typically binds to partially structured states which are rich in secondary structure, compact, but which have not yet established the final tertiary structure, thus this dye can be used to detect a molten globule-like character of proteins. Fluorescence spectra of ANS-peptide complexes were measured using a Spex Fluorolog fluorimeter at 25 C (370 nm excitation and 460 nm emission). ANS-peptide complexes were monitored by adding aliquots of human IAPP to a 1 cm cuvette containing 10 μM ANS at various times along the amyloid formation reaction. Final solution conditions contained 16 mM tris HCl and 10 μM ANS (pH 7.4). […] All values represent means±SEM (n=3).

[7] = Far-UV CD of h-IAPP species; type: physicochemical; conditions: at time points of toxicity
Protocol: CD measurements of IAPP, sRAGE and IAPP/sRAGE reactions were taken at various incubation times. Far-UV CD experiments monitor the development of secondary structure of h-IAPP species and give insight into the conformational requirement for IAPP/RAGE-binding. All CD experiments were performed on an Applied Photophysics circular dichroism spectrophotometer by directly transferring 300 μL of peptide solution from kinetic assays into a 0.1 cm quartz cuvette a few minutes prior to data collection. The CD spectra for sRAGE and tris HCl buffer was subtracted from all RAGE/IAPP mixtures. The final far-UV CD data was collected over the range of 190 to 260 nm. Final solution conditions contained 16 mM tris HCl (pH 7.4).

T1 sequence (Q15109 23-342): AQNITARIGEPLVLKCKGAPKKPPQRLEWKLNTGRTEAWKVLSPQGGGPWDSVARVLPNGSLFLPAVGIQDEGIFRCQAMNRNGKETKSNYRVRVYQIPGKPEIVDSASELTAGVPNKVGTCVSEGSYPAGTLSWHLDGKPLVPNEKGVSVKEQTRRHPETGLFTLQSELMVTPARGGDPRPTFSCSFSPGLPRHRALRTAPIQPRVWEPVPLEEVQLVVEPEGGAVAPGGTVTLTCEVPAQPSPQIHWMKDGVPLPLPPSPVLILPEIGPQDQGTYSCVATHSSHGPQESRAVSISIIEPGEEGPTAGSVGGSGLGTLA

binding to sRAGE (tryptophan fluorescence quenching) [3]: wave of fluorescence quenching | protein pelleted [5]: 6.5% | protein remained in solution ([5]; 20 min): 93.5% | ANS binding to final amyloid fibrils [6]: did bind | ANS binding to monomeric form and intermediates [6]: No ANS binding was observed
Structure (SMILES): CC[C@H](C)[C@H](NC(=O)[C@H](C)NC(=O)CNC(=O)[C@H](Cc1ccccc1)NC(=O)[C@H](CC(N)=O)NC(=O)[C@H](CC(N)=O)NC(=O)[C@H](CO)NC(=O)[C@H](CO)NC(=O)[C@H](Cc1c[nH]cn1)NC(=O)[C@@H](NC(=O)[C@H](CC(C)C)NC(=O)[C@H](Cc1ccccc1)NC(=O)[C@H](CC(N)=O)NC(=O)[C@H](C)NC(=O)[C@H](CC(C)C)NC(=O)[C@H](CCCNC(=N)N)NC(=O)[C@H](CCC(N)=O)NC(=O)[C@@H](NC(=O)[C@H](C)NC(=O)[C@@H]1CSSC[C@H](NC(=O)[C@@H](N)CCCCN)C(=O)N[C@@H](CC(N)=O)C(=O)N[C@@H]([C@@H](C)O)C(=O)N[C@@H](C)C(=O)N[C@@H]([C@@H](C)O)C(=O)N1)[C@@H](C)O)C(C)C)C(=O)N[C@@H](CC(C)C)C(=O)N[C@@H](CO)C(=O)N[C@@H](CO)C(=O)N[C@H](C(=O)N[C@@H](CC(N)=O)C(=O)N[C@H](C(=O)NCC(=O)N[C@@H](CO)C(=O)N[C@@H](CC(N)=O)C(=O)N[C@H](C(=O)N[C@@H](Cc1ccc(O)cc1)C(N)=O)[C@@H](C)O)C(C)C)[C@@H](C)O [h-IAPP, human islet amyloid polypeptide]
cell toxicity of amyloid fibrils ([1]; amyloid fibrils added to cultured cells): No toxicity was observed | cell toxicity (AlamarBlue cell viability, light microscopy) ([1]; peptide incubated in buffer at room temperature for various times, then applied to INS-1 β-cells): maximum toxicity was observed at intermediate time points | toxicity of resuspended pellet after ultracentrifugation ([1]; resuspended pellet added to beta cells): the resuspended pellet is not | toxicity of soluble phase after ultracentrifugation ([1]; supernatant added to beta cells): toxic to beta cells | RAGE binding of transiently populated intermediates (SPR) ([2]; intermediates): binds transiently populated intermediates | RAGE binding of monomers or amyloid fibrils (SPR) ([2]; monomers or amyloid fibrils): does not bind to h-IAPP monomers or amyloid fibrils | toxicity to smooth muscle cells ([4]; h-IAPP intermediates): toxic to smooth muscle cells | toxicity to RAGE-null versus wild type SMCs ([4]; increasing amounts of h-IAPP toxic species): genetic deletion of RAGE protects SMCs from h-IAPP toxicity compared to WT SMCs | solubility of toxic oligomers (centrifugation) [5]: soluble and cannot be pelleted | solubility of toxic species (ultracentrifugation) [5]: soluble | secondary structure (far UV CD) [7]: some partial helical structure, but no beta sheet structure
